Consider 1 compound from article PMC12186843, “Targeting GABAergic Hypofunction Associated with Schizophrenia: Identification of α1β2γ2GABA‑A Receptor Ligands with Neuroprotective and Antipsychotic Properties” (ACS Chemical Neuroscience, 2025).

A short description of one data set: PAMPA permeability assay. It counts as in vitro ADME. The conditions noted are these: pH 7.4, PAMPA, PBS pH 7.4, 100 μM, zolpidem tested as tartrate, read-out: Permeability Pe ± SD. As to the method:
PAMPA. The precoated PAMPA Plate System Gentest, obtained from Corning (Tewksbury, MA, USA), was used for the permeability study. The system includes a 96-well receiver filter plate precoated with structured phospholipid layers and a matching donor microplate. Stock solutions of the test compounds and reference drugs were prepared in PBS buffer (pH 7.4) at a final concentration of 100 μM. Each compound solution (200 μL) was added to the donor wells and incubated at room temperature for 5 h. The quantity of molecules that penetrated from the donor wells to the acceptor wells through the phospholipid membrane was determined using UPLC-MS spectrometry (Waters ACQUITY TQD system with the TQ Detector, Waters, Milford, USA) with an internal standard. Permeability coefficients (Pe, cm/s) were calculated according to the formula provided by the manufacturer.

The test system of data set [1] is Wistar rats. As to the kind of experiment: MK-801-induced hyperlocomotion. Particulars: i.p., 1, 3 and 10 mg/kg, significant effect at 10 mg/kg, MK-801 0.3 mg/kg i.p. It counts as in vivo, rat. As to the method: 8 (A). […] The dose of 0 mg/kg corresponds to subjects treated with vehicle and amphetamine (1.0 mg/kg, i.p.). Data are presented as the mean ± SEM (n = 8). One-way ANOVA F(3,28)=0.2, p > 0.05, one-way ANOVA F(3,28)=[…], p < 0.01**. (B). […] The dose of 0 mg/kg corresponds to subjects treated with vehicle and MK-801 (0.3 mg/kg, i.p.). Data are presented as the mean ± SEM (n = 8). ** p < 0.01, Newman-Keuls test, F(3,28)=5.29, p = 0.005. (C) Effects of compound 9, administered at doses ranging from 1 to 10 mg/kg, on spontaneous locomotor activity in rats. Data are presented as the mean ± SEM (n = 8). One-way ANOVA F(3,28) = 0.3, p > 0.05, one-way ANOVA F(3,28) = 6.7, p < 0.01*.
(§1) All behavioral procedures were conducted using drug-naive male Wistar rats (Charles River, Sulzfeld, Germany), (n = 8/per group). Animals were housed in groups of four per standard plastic cage under controlled environmental conditions (temperature: 22 ± 1 °C, humidity: 60%, and a 12:12 light-dark cycle with lights on at 07:00 a.m.). […]
All procedures were performed in a sound-attenuated experimental room between 9:00 a.m. and 3:00 p.m. […] Locomotor activity was measured in black octagonal cages (80 cm diameter, 30 cm height) amid dim lighting and constant white noise (65 dB). […] Locomotor activity (cm/30 min) was recorded and analyzed using an automated motion monitoring system (Videomot, TSE, Bad Homburg, Germany). […]

Data set [2] concerns Wistar rats. As to the kind of experiment: Prepulse inhibition (PPI) test with MK-801. Particulars: i.p. It counts as in vivo, rat. As to the method:
as §1, with “a.m.). Animals were obtained from the breeder 2 weeks prior to the initiation of behavioral procedures, during which time they were weighed and handled multiple times. Animals had ad libitum access to tap water and standard laboratory chow (Labofeed H, WPIK, Kcynia, Poland).” for “a.m.).”
The PPI apparatus consisted of eight startle chambers (SR-LAB, San Diego Instruments, San Diego, CA, USA). […] Startle responses, reflecting the movement of animals within the cylinder following an acoustic stimulus, were measured with a piezoelectric transducer positioned beneath the frame. […]
The preliminary stimuli were followed by 60 trials of varying intensities presented in random order, with a mean intertrial interval (ITI) of 22.5 s. […] Startle amplitudes were calculated as the average response across 10 trials for each stimulation type. […] Startle responses (in manufacturer’s arbitrary units), and magnitudes of PPI (%) were analyzed with the aid of a one-way analysis of variance (ANOVA). […]

Consider `Cc1ccc2nc(-c3ccc(F)cc3)c(CC(=O)N3CCCC3)n2c1.O=C(O)C(O)C(O)C(=O)O` [Compound 17, 2-(4-Fluorophenyl)-6-methyl-3-(2-oxo-2-(pyrrolidin-1-yl)-ethyl)imidazo[1,2-a]pyridin-1-ium 3-carboxy-2,3-dihydroxy-propanoate], for which, in the data set “PAMPA permeability assay”, the Papp at 5 h, 100 μM was more than 40 nm/s. In the data set on Wistar rats [1], the “Effect on MK-801-induced hyperlocomotion” value is listed as “reduced hyperlocomotion”. Moreover, the “Effect on basic startle response” value in the data set on Wistar rats [2] (F(3,28) = 1.66, p = 0.2) is on record as “did not affect significantly basic startle response”. The “Effect on MK-801-induced PPI deficits” value with Wistar rats [2] (prestimulus of 84 and 90 dB, p = 0.82 and p = 0.72) is listed as “the effect did not reach statistical significance”.
